Data taken from patent publication US8278072B1, “Method for synthesis of sialylated products using reversible sialylation” (Health Research, Inc., priority 2007, dated 2012).

How the values were obtained:
[1] = target: T1, ST6Gal I (Cloned rat liver) (Rattus norvegicus, UniProt P13721); experiment: Forward (direct) sialyltransferase activity, ST6Gal-I; type: biochemical; conditions: donor CMP-[9-3H]NeuAc, acceptor Galβ1,4GlcNAcβ-O-Bn
T1 construct: purchased Calbiochem
T1 sequence (P13721 1-403): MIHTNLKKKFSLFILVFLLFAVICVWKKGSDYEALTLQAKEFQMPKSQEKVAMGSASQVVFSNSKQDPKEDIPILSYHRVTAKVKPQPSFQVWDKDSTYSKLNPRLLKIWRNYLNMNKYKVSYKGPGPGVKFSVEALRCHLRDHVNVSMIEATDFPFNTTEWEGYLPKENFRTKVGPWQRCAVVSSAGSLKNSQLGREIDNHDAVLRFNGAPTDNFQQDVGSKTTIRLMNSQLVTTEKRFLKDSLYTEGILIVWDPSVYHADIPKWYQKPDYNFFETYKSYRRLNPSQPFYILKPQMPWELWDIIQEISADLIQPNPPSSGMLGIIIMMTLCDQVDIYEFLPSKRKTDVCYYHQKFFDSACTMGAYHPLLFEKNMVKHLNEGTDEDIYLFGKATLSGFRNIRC
Experimental: (§1) FIG. 5. Effect of 5′-nucleotides on direct sialyltransferase activity (panel a) and reverse sialylation (panel b). a. Varying concentrations of 5′-CDP or 5′-CMP were added to 100 mM acceptor (specified below), 0.15 mM CMP-[9-^3H]NeuAc and either ST3Gal-II (0.2 mU), ST3Gal-III (0.5 mU) or ST6Gal-I (0.2 mU) for 4 h at 37° C. Products were separated using Sep-Pak C18 method. ST3Gal-III activity was measured using acceptor 4-O-MeGalβ1,4GlcNAcβ-O-Bn in the presence of 5′-CDP (●) and 5′-CMP (◯). ST6Gal-I activity was measured using Gal β1,4GlcNAcβ-O-Bn in the presence of 5′-CDP (▴) and 5′-CMP (Δ). ST3Gal-II using D-Fucβ1,3GalNAcα-O-Bn in the presence of 5′-CDP (▪) and 5′-CMP (□). b) Reverse sialylation by ST3Gal-II was measured in reaction mixtures containing 0.2 mM [9-^3H] [3], 7 mM 5′-CMP, ST3Gal-II (2 mU), D-Fucβ1,3GalNAcα-OBn (3.0 mM) and varying doses of either 5′-CDP (▴), 5′-UMP (◯) or 2-deoxy 5′-CMP (●) for 4 hours at 37° C. Reaction product ([9-^3H]NeuAcα2,3DFucβ1,3 GalNAcα-O-Bn) was isolated using Sep-Pak C18 method. In some runs, where was absent, the amount of CMP-NeuAc produced was quantified using the Dowex-1 Formate method in the presence of varying doses of 5′-CDP (▪).
(§2) Besides pH other distinctions were also observed between forward and reverse sialylation. In this regard, citrate ions tended to inhibit forward sialylation but not reverse sialylation activity (Table V). For these studies, the effect of citrate on the forward sialylation activity of ST3Gal-I, ST3Gal-II, ST3Gal-III and ST6Gal-I was examined. Reverse sialylation activity of ST3Gal-II was also measured in terms of: i) the formation of CMP-NeuAc from 5′-CMP; and ii) the transfer of NeuAc from this newly synthesized CMP-NeuAc to another O-glycan. From the data (Table V), it is evident that citrate inhibits the direct sialylation activity of all the enzymes mentioned above. However, both the synthesis of CMP-[9-^3H]NeuAc from 5′-CMP as well as the synthesis of [9-^3H]NeuAcα2,3D-Fucβ1,3 GalNAcα-O-Bn using the newly formed CMP-[9-^3H]NeuAc through reverse sialylation of ST3Gal-II was not inhibited by citrate.
(§3) The effect of 5′-nucleotides on forward sialylation (FIG. 5a) and reverse sialylation (FIG. 5b) were examined. […] The overall formation of [9-^3H]NeuAcα2,3D-Fucβ1,3 GalNAcα-O-Bn by the two-step reverse sialylation process, however, was inhibited by 5′-CDP and this is consistent with the finding that 5′-CDP inhibits forward sialylation in the second step.

[2] = target: T2, ST3Gal III (Cloned rat liver) (Rattus norvegicus, UniProt Q02734); experiment: Forward (direct) sialyltransferase activity, ST3Gal-III; type: biochemical; conditions: donor CMP-[9-3H]NeuAc, acceptor 4-O-MeGalβ1,4GlcNAcβ-O-Bn
T2 construct: purchased Calbiochem
T2 sequence (Q02734 1-374): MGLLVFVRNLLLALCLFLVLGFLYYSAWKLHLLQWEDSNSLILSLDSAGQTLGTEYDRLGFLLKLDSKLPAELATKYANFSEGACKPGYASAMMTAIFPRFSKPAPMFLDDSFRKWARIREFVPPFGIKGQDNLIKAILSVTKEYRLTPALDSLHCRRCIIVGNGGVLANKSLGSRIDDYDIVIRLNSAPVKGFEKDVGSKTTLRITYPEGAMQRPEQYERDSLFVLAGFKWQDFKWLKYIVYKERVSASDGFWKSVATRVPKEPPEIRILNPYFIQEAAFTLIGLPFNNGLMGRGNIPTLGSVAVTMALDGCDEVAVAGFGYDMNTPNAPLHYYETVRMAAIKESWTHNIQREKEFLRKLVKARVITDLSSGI
Experimental: as §1, §2, §3

Effect on forward sialylation activity of ST6Gal-I [1] | Effect on forward sialylation activity of ST3Gal-III [2] | SMILES
inhibited | inhibited | Nc1ccn([C@@H]2O[C@H](COP(=O)(O)OP(=O)(O)O)[C@@H](O)[C@H]2O)c(=O)n1 [5′-CDP]
inhibited | inhibited | Nc1ccn([C@@H]2O[C@H](COP(=O)(O)O)[C@@H](O)[C@H]2O)c(=O)n1 [5′-CMP, Cytidine 5′-monophosphate]
